One substance from patent US20250333733A1, “NOVEL TARGETS AGAINST OVARIAN CANCER” (UNIVERSITY OF PUERTO RICO, priority 2022, published 2025) can be followed below.

For data set [1], the system named is CASC10. Kind of data set: RT-qPCR of CASC10 expression after siRNA transfection in OVCAR3CIS cells. In kind it is cell-based. The following applies: vs NC-siRNA. As for the experimental part: SiRNA ON-TARGET plus SMARTpool (a mixture of 4 siRNA as a single tube) and a negative control siRNA (NC-siRNA) (Sigma-Aldrich) were used for transfection studies. CASC10, was targeted by using two siRNAs targeting different regions of the CASC10 RNA (e.g., CASC10-siRNA (1) and CASC10-siRNA (2)). OVCAR3CIS or SKOV3ip1CIS cells were seeded into 12-well plates at 3.0×10^4 cells/mL. The next day, siRNAs were mixed with HiPerfect transfection reagent (Qiagen, Valencia, CA) at a 1:2 ratio (SIRNA: HiPerfect) in serum and antibiotic-free Opti-MEM medium (Gibco) and added to the cells. After twenty-four hours the media was replaced by regular culture media, and cells were cultured and used for further experiments. To assess siRNA transfection efficiency, cells were collected 24 hours after siRNA transfection.
A custom-made 384-well plate containing pre-designed forward and reverse primers was purchased from Bio-Rad (CA, USA). Total RNA was isolated from OVCAR3 and OVCAR3CIS cells using the GenElute Mammalian Total RNA Mini Kit (Millipore-Sigma, MO, USA) following the manufacturer's instructions. […] Fold-changes and cycle threshold (Ct) values were calculated by the instrument's internal software relative to OVCAR3 cells and normalized to B-actin along with controls for gDNA, PCR reaction, RT reaction, and RNA quality.
For orientation: Quantitative PCR measures a nucleic acid by following its amplification.

Data set [2] deals with SKOV3IP1CIS. Kind of data set: Cell cycle progression by flow cytometry. The format is cell-based, human. The following applies: 48 hours post-transfection. The procedure: To assess cell cycle progression, OVCAR3CIS (3.0×10^4 cells/mL) or SKOV3ip1CIS (3.5×10^4 cells/mL) were seeded into 10 cm Petri dishes and transfected with NC-siRNA or CASC10-siRNA (2). Forty-eight hours later, attached cells were collected, washed in ice-cold PBS, fixed with 70% cold ethanol, and stored at 4° C. Cells were then washed with ice-cold PBS, resuspended in propidium iodide (PI)/RNase Staining Buffer, incubated in the dark for 15 minutes at room temperature, and then analyzed by flow cytometry in BD C6 Accuri (CA, USA). Accuri's software was used to determine the percentage of cells in each cell cycle phase.
A general note: Flow cytometry measures light scatter and fluorescence of single cells or particles in a stream.

Turning to “CASC10-siRNA (2): siRNA targeting CASC10 RNA, SEQ ID NO 3 and 4: 5′ GACUCUUGGAUCCAAGUUU(dT)(dT) 3′ / 5′ AAACUUGGAUCCAAGAGUC(dT)(dT) 3′ (chain 1 GACUCUUGGAUCCAAGUUUNN; chain 2 AAACUUGGAUCCAAGAGUCNN; 3' dTdT overhangs, chemistry not fully specified)”, the “decrease of CASC10 expression” value in data set [1] is 57%. In addition, the cell cycle progression result in data set [2] is “cell cycle arrest in the G0/G1 to S phase”.
